The text below walks through data of patent US12594262B2, “CAI nanoemulsions” (ForwardVue Pharma, Inc., priority 2019, dated 2026).

Data set [1] can be described thus: Stability of CAI to autoclave sterilization, RP-HPLC analysis with UV detection. The data set is classed as physicochemical. As to conditions: autoclaving, for instance 121° C. for about 30 minutes. On the procedure:
Stable sterile formulations can then be prepared by autoclaving for sufficient time at temperatures suitable for effectively killing the microorganisms that may be present in the formulation, for instance, 121° C. for about 30 minutes.

The conditions of data set [2]: cited from earlier work.
The conditions of data set [3]: cited from earlier work. The source holds these as a separate data set.
The conditions of data set [4]: cited from earlier work. The source holds these as a separate data set.
The conditions of data set [5]: humans, single 5 mg peribulbar injection; cited from earlier work.

Each structure is given as a SMILES string.

With `NC(=O)c1nnn(Cc2cc(Cl)c(C(=O)c3ccc(Cl)cc3)c(Cl)c2)c1N` [CAI], the “decomposition of CAI or formation of new impurities after sterilization” value in data set [1] is “no decomposition of CAI or formation of new impurities could be detected”. For the same molecule, the “plasma concentrations associated with unacceptable toxicity” value in data set [2] is “above 100 micromolar”. Also, in data set [3] (doses required to achieve circulating levels projected for inhibition of pathological neovascularization), the “toxic effects observed in clinical studies” value was “cerebellar ataxia, peripheral neuropathy and exacerbation of depression”. Besides, in data set [3] (systemic administration, two cases described (Berlin et al. 2002)), the “serious side effect of clinical use” value is listed as “loss of vision”. Also, the physiological tissue concentrations in data set [4] was 1-10 μM.
`C[C@@H]1C[C@H]2[C@@H]3CCC4=CC(=O)C=C[C@]4(C)[C@@]3(F)[C@@H](O)C[C@]2(C)[C@@]1(O)C(=O)CO` [Dexamethasone]: the “concentration detected in the vitreous cavity” value in data set [5] is 0.013 µg/mL.
